Experimental data: patent publication US10137212B2, “Tetrahydroxamate chelators of zirconium89 and niobium90 for use in diagnostic applications” (priority 2013, dated 2018)

Experiments:
Assay type in all cases: physicochemical
[1] = complexation of ligands with ^89Zr, yield by ITLC-SG; settings: 7.5 nmol ligand, pH 7
Procedure: All solutions described below were prepared with de-ionized water purified through a Chelex column prior to use. Stock solutions of ^89Zr at pH 7 were prepared as follow: to 450 μL of the ^89Zr solution in oxalic acid were added 450 μL of a 1M Na2CO3 solution and the pH was adjusted to 7 by addition of small aliquots of a 0.1 M Na2CO3 or 0.1 M HCl. 450 μL of water containing 3% bovine serum albumin were then added. To 45 μL of stock solution (˜1.3 MBq of ^89Zr in a typical experiment) were added 7.5 nmol (5 μL) of L5, L6, L7, C5, C6, or C7 in DMSO or the natural siderophore desferrioxamine B (DFB) mesylate in de-ionized water. These solutions were incubated at desired temperatures and time of reaction and analyzed by ITLC-SG using a 50 mM EDTA (ethylenediaminetetraacetic acid) solution adjusted to pH=7 in de-ionized water as eluant, and analyzed with a Typhoon 8600 scanner (GE Healthcare) in phosphorimaging mode. The percentage of the activity bound to the ligand after TLC was calculated by converting the TLC scan into a chromatogram and integrating the peak corresponding to the spot at the bottom of the TLC. Activity ratios were averaged out of a minimum of 2 TLCs for each condition. The influence of time and temperature on the complexation yield of ^89Zr by L5, L6, L7, C5, C6 and C7 and DFB is shown in Table 1. […]

[2] = in vitro stability of ^89Zr complexes in 0.1 M sodium phosphate buffer pH 6.5; settings: 0.1 M sodium phosphate buffer pH 6.5, 10% DMSO, 37° C.
Procedure: (§1) 10 μL of each ^89Zr complex solution prepared as described above in Example 14 were incubated for 7 days in 40 μL Phosphate-Buffered Saline (PBS) (pH 7.4-10% DMSO) at 20° C., 40 μL sodium phosphate buffer (0.1 M, pH 6.5-10% DMSO) at 37° C., 40 μL human serum at 37° C., or 40 μL 50 mM EDTA (pH 7, 10% DMSO) at 37° C., respectively, and analyzed using the chromatographic system described in the above section after 1 h, 3 h, 1, 2, 3, 4, 5, 6, and 7 days.

[3] = in vitro stability of ^89Zr complexes in 50 mM EDTA (challenge); settings: pH 7, 37° C.; for ^89Zr remaining complexed after a week: 7 days (n=4), FIG. 13
Procedure: FIG. 13 is a graph illustrating the stability of the ^89Zr-complexes in 50 mM EDTA at pH 7 and 37° C. over 7 days (n=4).
as §1

| SMILES | complexation yield of ^89Zr ([1]; 20° C., 30 min) [%] | complexation yield of ^89Zr ([1]; 20° C., 120 min) [%] | complexation yield of ^89Zr ([1]; 50° C., 30 min) [%] | complexation yield of ^89Zr ([1]; 80° C. (time not given)) [%] | Fraction of intact complex ([2]; 1 Day) [%] | Fraction of intact complex ([2]; 4 Days) [%] | Fraction of intact complex ([2]; 7 Days) [%] | ^89Zr remaining complexed after a week [3] | time of release of ~50% of ^89Zr [3] |
| --- | --- | --- | --- | --- | --- | --- | --- | --- | --- |
| O=C1CCCCCCCN(O)C(=O)CCCCCCCN(O)C(=O)CCCCCCCN(O)C(=O)CCCCCCCN1O [Ligand C7] | 92 | >99 | >99 | >99 | >99 | 99 | 99 | 87±3% |  |
| O=C1CCCCCN(O)C(=O)CCCCCN(O)C(=O)CCCCCN(O)C(=O)CCCCCN1O [Ligand C5] | 17 | 22 | 23 | 29 | 69 | 46 | 42 | nearly none | within the first minutes |
| CC(=O)N(O)CCCCCNC(=O)CCC(=O)N(O)CCCCCNC(=O)CCC(=O)N(O)CCCCCN [DFB, desferrioxamine B, reference compound] | >99 | >99 | >99 | >99 | 99 | 98 | 98 |  |  |
| CCCCCC(=O)N(O)CCCCCCC(=O)N(O)CCCCCCC(=O)N(O)CCCCCCC(=O)N(O)CCC [Ligand L6] | 82 | 95 | 96 | >99 | 97 | 94 | 94 |  |  |
| O=C1CCCCCCN(O)C(=O)CCCCCCN(O)C(=O)CCCCCCN(O)C(=O)CCCCCCN1O [Ligand C6] | 77 | 79 | 92 | 92 | 89 | 79 | 61 | 32±4% | a single day |
| CCCCCCC(=O)N(O)CCCCCCCC(=O)N(O)CCCCCCCC(=O)N(O)CCCCCCCC(=O)N(O)CCC [Ligand L7] | 88 | >99 | >99 | >99 | 99 | 98 | 98 |  |  |
| CCCCC(=O)N(O)CCCCCC(=O)N(O)CCCCCC(=O)N(O)CCCCCC(=O)N(O)CCC [Ligand L5] | 60 | 71 | 73 | 87.3 | 93 | 89 | 77 |  |  |
